Measurements: patent US4236012A, “5-Phenethyl-2-oxazolidone derivatives and a process for producing the same” (Nippon Chemiphar Company, Limited, priority 1978, dated 1980)

Tests used:
Type in all cases: in vivo, dd Male mice
[1] = system: mice; assay: Analgetic Effect on Acetic Acid-Induced Writhing Method; details: Mus musculus, oral, 30 minutes before intraperitoneal 0.6% acetic acid, writhing within 20 minutes, Litchfield Wilcoxon method
Method: (2) Analgetic Effect on Acetic Acid-Induced Writhing Method:
dd Male mice weighing 18 to 22 g, each group consisting of ten animals were given an intraperitoneal injection of 0.6% acetic acid in a dosage of 0.1 ml/10 g per body weight. The number of writhing syndromes occurring within 20 minutes after the injection was observed. Thereafter, the mice were orally given the test compounds suspended in a 0.2% carboxymethylcellulose solution 30 minutes before the injection of acetic acid. The inhibitory percentage was estimated in comparison with a control in which only a 0.2% carboxymethylcellulose solution was given, and the ED50 values were calculated by the Litchfield Wilcoxon method.

[2] = system: mice; assay: Muscular Relaxing Effect: Traction Test; details: Mus musculus, oral, hind legs on wire within 5 seconds, maximum response over 15-180 minutes, Litchfield Wilcoxon method, read-out: ED50 Values, T.T (Traction Test)
Method: (§1) (1) Muscular Relaxing Effect:
(§2) dd Male mice weighing 18 to 22 g, one group consisting of ten animals were orally given the compounds (I) to (III) each suspended in a 0.2% carboxymethylcellulose solution in a dosage of 0.25 ml/10 g per body weight. Mephenesin and 5-(o-chlorobenzyl)-2-oxazoline were used as active placebos. The experiment was carried out according to the methods (a) to (c) as described below, and the ED50 values were calculated by the Litchfield Wilcoxon method, based on the maximum response in each dosage which was measured at intervals of 15, 30, 45, 60, 90, 120, 150 and 180 minutes after the administration of each of the test compounds.

[3] = system: mice; assay: Muscular Relaxing Effect: Inclined Plane Test; details: Mus musculus, oral, veneer inclined at 30 degrees and wire network at 60 degrees, maximum response over 15-180 minutes, Litchfield Wilcoxon method, read-out: ED50 Values, I.P (Inclined Plane Test)
Method: as §1, §2
Mice were placed on veneer inclined at an angle of 30 degrees and on a wire network inclined at an angle of 60 degrees of which one mesh was 5 mm square, and the mice sliding down were considered as positive in comparison with their normal behavior.

[4] = system: mice; assay: Muscular Relaxing Effect: Rotarod Method; details: Mus musculus, oral, falling within 3 minutes from rod of 3 cm diameter at 10 rpm, maximum response over 15-180 minutes, Litchfield Wilcoxon method, read-out: ED50 Values, R.R (Rotarod Method)
Method: as §1, §2
Mice were placed on Rotar Load (made by Natsume Seisakusho Co., Ltd.) having a diameter of 3 cm and rotating at a speed of 10 rpm, and their falling (occurring within 3 minutes) was observed.

| Compound | ED50 [1] | ED50 [2] | ED50 [3] | ED50 [4] |
| --- | --- | --- | --- | --- |
| O=C1NCC(Cc2ccccc2Cl)O1 (centres unmarked) [Compound A, 5-(o-Chlorobenzyl)-2-oxazolidone, reference compound] | 40 mg/kg | 390 mg/kg | 330 mg/kg | 210 mg/kg |
| O=C1NCC(CCc2ccccc2F)O1 (centres unmarked) [Compound II, 5-(o-Fluorophenethyl)-2-oxazolidone] |  | 230 mg/kg | 297 mg/kg | 194 mg/kg |
| O=C1NCC(CCc2ccccc2Cl)O1 (centres unmarked) [Compound III, 5-(o-Chlorophenethyl)-2-oxazolidone] | 36 mg/kg | 225 mg/kg | 268 mg/kg | 182 mg/kg |
| Cc1ccccc1OCC(O)CO (centres unmarked) [Mephenesin, reference compound] |  | 460 mg/kg | 470 mg/kg |  |
| O=C1NCC(CCc2ccccc2)O1 (centres unmarked) [Compound I, 5-Phenethyl-2-oxazolidone] |  | 217 mg/kg | 261 mg/kg | 196 mg/kg |
| Cc1c(N(C)C)c(=O)n(-c2ccccc2)n1C [Aminopyrine] | 64 mg/kg |  |  |  |
